Results: patent publication US20130287805A1, “C18ORF54 PEPTIDES AND VACCINES INCLUDING THE SAME” (priority 2010, published 2013)
“Also recorded” adds a separate entry of the source.

How the values were obtained:
peptide-pulsed T2 cells [1] = test: IFN-gamma ELISPOT assay of CTLs induced in vitro with peptide-pulsed DCs; assay type: cell-based, human; details: CTLs from HLA-A*0201 positive donor, day 21, peptide-pulsed T2 versus no peptide control
From the text: Monocyte-derived dendritic cells (DCs) were used as antigen-presenting cells to induce cytotoxic T lymphocyte (CTL) responses against peptides presented on human leukocyte antigen (HLA). DCs were generated in vitro as described elsewhere (Nakahara S et al., Cancer Res 2003 Jul. 15, 63(14): 4112-8). Specifically, peripheral blood mononuclear cells isolated from a normal volunteer (HLA-A*0201 positive) by Ficoll-Plaque (Pharmacia) solution were separated by adherence to a plastic tissue culture dish (Becton Dickinson) so as to enrich them as the monocyte fraction. The monocyte-enriched population was cultured in the presence of 1000 U/ml of granulocyte-macrophage colony-stimulating factor (R&D System) and 1000 U/ml of interleukin (IL)-4 (R&D System) in AIM-V Medium (Invitrogen) containing 2% heat-inactivated autologous serum (AS). After 7 days of culture, the cytokine-induced DCs were pulsed with 20 micro-g/ml of each of the synthesized peptides in the presence of 3 micro-g/ml of beta 2-microglobulin for 3 hr at 37 degrees C. in AIM-V Medium. The generated cells appeared to express DC-associated molecules, such as CD80, CD83, CD86 and HLA class II, on their cell surfaces (data not shown). These peptide-pulsed DCs were then inactivated by X-irradiated (20 Gy) and mixed at a 1:20 ratio with autologous CD8+ T cells, obtained by positive selection with CD8 Positive Isolation Kit (Dynal). These cultures were set up in 48-well plates (Corning); each well contained 1.5×10^4 peptide-pulsed DCs, 3×10^5 CD8+ T cells and 10 ng/ml of IL-7 (R&D System) in 0.5 ml of AIM-V/2% AS medium. Three days later, these cultures were supplemented with IL-2 (CHIRON) to a final concentration of 20 IU/ml. On day 7 and 14, the T cells were further stimulated with the autologous peptide-pulsed DCs. The DCs were prepared each time by the same way described above. CTL was tested against peptide-pulsed T2 cells after the 3rd round of peptide stimulation on day 21 (Tanaka H et al., Br J Cancer Jan. 5, 2001, 84(1): 94-9; Umano Y et al., Br J Cancer Apr. 20, 2001, 84(8): 1052-7; Uchida N et al., Clin Cancer Res Dec. 15, 2004, 10(24): 8577-86; Suda T et al., Cancer Sci May 2006, 97(5): 411-9; Watanabe T et al., Cancer Sci August 2005, 96(8): 498-506).
(§1) Specifically, peptide-pulsed T2 (1×10^4/well) was prepared as stimulator cells. Cultured cells in 48 wells were used as responder cells. IFN-gamma ELISPOT assay and IFN-gamma ELISA assay were performed under manufacture procedure.

peptide-pulsed T2 cells [2] = test: IFN-gamma ELISA assay of expanded CTL lines; assay type: cell-based, human; details: target cells pulsed with peptide versus without peptide pulse
Experimental: CTLs were expanded in culture using the method similar to the one described by Riddell et al. (Walter E A et al., N Engl J Med Oct. 19, 1995, 333(16): 1038-44; Riddell S R et al., Nat Med February 1996, 2(2): 216-23). A total of 5×10^4 CTLs were suspended in 25 ml of AIM-V/5% AS medium with 2 kinds of human B-lymphoblastoid cell lines, inactivated by Mitomycin C, in the presence of 40 ng/ml of anti-CD3 monoclonal antibody (Pharmingen). One day after initiating the cultures, 120 IU/ml of IL-2 were added to the cultures. The cultures were fed with fresh AIM-V/5% AS medium containing 30 IU/ml of IL-2 on days 5, 8 and 11 (Tanaka H et al., Br J Cancer Jan. 5, 2001, 84(1): 94-9; Umano Y et al., Br J Cancer Apr. 20, 2001, 84(8): 1052-7; Uchida N et al., Clin Cancer Res Dec. 15, 2004, 10(24): 8577-86; Suda T et al., Cancer Sci May 2006, 97(5): 411-9; Watanabe T et al., Cancer Sci August 2005, 96(8): 498-506).
as §1

peptide-pulsed T2 cells [3] = test: IFN-gamma ELISA assay of CTL clones established by limiting dilution; assay type: cell-based, human; details: target cells pulsed with peptide versus without peptide pulse
Experimental: The dilutions were made to have 0.3, 1, and 3 CTLs/well in 96 round-bottomed micro titer plate (Nalge Nunc International). CTLs were cultured with 1×10^4 cells/well of 2 kinds of human B-lymphoblastoid cell lines, 30 ng/ml of anti-CD3 antibody, and 125 U/ml of IL-2 in a total of […] of AIM-V Medium containing 5% AS. 50 micro-l/well of IL-2 were added to the medium 10 days later so to reach a final concentration of 125 U/ml IL-2. CTL activity was tested on the 14th day, and CTL clones were expanded using the same method as described above (Uchida N et al., Clin Cancer Res Dec. 15, 2004, 10(24): 8577-86; Suda T et al., Cancer Sci May 2006, 97(5): 411-9; Watanabe T et al., Cancer Sci August 2005, 96(8): 498-506).
as §1

[4] = system: COS7 cells transfected with C18orf54 and HLA-A*0201; test: Specific CTL activity against target cells expressing C18orf54 and HLA-A*0201; assay type: cell-based, African green monkey; details: CTL clone
From the text: The cDNA encoding an open reading frame of target genes or HLA-A*0201 was amplified by PCR. The PCR-amplified product was cloned into the expression vector. The plasmids were transfected into COS7, which is the target genes and HLA-A*0201-null cell line, using lipofectamine 2000 (Invitrogen) according to the manufacturer's recommended procedures. After 2 days from transfection, the transfected cells were harvested with versene (Invitrogen) and used as the target cells (5×10^4 cells/well) for CTL activity assay.
The established CTL lines and clones raised against each peptide were examined for the ability to recognize target cells that express C18orf54 and HLA-A*0201 molecule. […] COS7 cells transfected with either full length of C18orf54 or HLA-A*0201 were prepared as the controls.

Sequence: WLTSQKSDL [SEQ ID NO: 20]
- Peptide specific CTL activity: IFN-gamma production (ELISPOT) (peptide-pulsed T2 cells [1]): potent IFN-gamma production

Sequence: QLKESMIPI [SEQ ID NO: 10]
- Peptide specific CTL activity: IFN-gamma production (ELISPOT) (peptide-pulsed T2 cells [1]): potent IFN-gamma production

Sequence: QMLFNLQAV [SEQ ID NO: 2]
- Peptide specific CTL activity: IFN-gamma production (ELISPOT) (peptide-pulsed T2 cells [1]): potent IFN-gamma production
- IFN-gamma production of CTL lines (ELISA) (peptide-pulsed T2 cells [2]): potent IFN-gamma production

Sequence: TSIPDFKYPV [SEQ ID NO: 32]
- Peptide specific CTL activity: IFN-gamma production (ELISPOT) (peptide-pulsed T2 cells [1]): potent IFN-gamma production

Sequence: KLYRSASQA [SEQ ID NO: 14]
- Peptide specific CTL activity: IFN-gamma production (ELISPOT) (peptide-pulsed T2 cells [1]): potent IFN-gamma production

Sequence: SLQKALHHL [SEQ ID NO: 5]
- Peptide specific CTL activity: IFN-gamma production (ELISPOT) (peptide-pulsed T2 cells [1]): potent IFN-gamma production
- IFN-gamma production of CTL clones (ELISA) (peptide-pulsed T2 cells [3]; listed as C18orf54-A02-9-507): potent IFN-gamma production
- Specific CTL activity against COS7 cells expressing both C18orf54 and HLA-A*0201 ([4]; COS7 transfected with both full length C18orf54 and HLA-A*0201, listed as C18orf54-A02-9-507): potent CTL activity; also recorded: specific CTL activity
- Specific CTL activity against control COS7 cells ([4]; COS7 transfected with either C18orf54 or HLA-A*0201 alone): no significant specific CTL activity
- IFN-gamma production of CTL lines (ELISA) (peptide-pulsed T2 cells [2]): potent IFN-gamma production

Sequence: SMIPITRSL [SEQ ID NO: 1]
- Peptide specific CTL activity: IFN-gamma production (ELISPOT) (peptide-pulsed T2 cells [1]; listed as C18orf54-A02-9-500): not observed

Sequence: SLSDDKELV [SEQ ID NO: 3]
- Peptide specific CTL activity: IFN-gamma production (ELISPOT) (peptide-pulsed T2 cells [1]): potent IFN-gamma production

Sequence: SIPDFKYPV [SEQ ID NO: 4]
- Peptide specific CTL activity: IFN-gamma production (ELISPOT) (peptide-pulsed T2 cells [1]): potent IFN-gamma production
- IFN-gamma production of CTL clones (ELISA) (peptide-pulsed T2 cells [3]; listed as C18orf54-A02-9-255): potent IFN-gamma production
- IFN-gamma production of CTL lines (ELISA) (peptide-pulsed T2 cells [2]): potent IFN-gamma production

Sequence: VTFKSPVPV [SEQ ID NO: 9]
- Peptide specific CTL activity: IFN-gamma production (ELISPOT) (peptide-pulsed T2 cells [1]): potent IFN-gamma production
